Measured values: PubChem BioAssay (NCI)
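In this assay, cells in 96-well plates receive the compound at five concentrations for 48 hours. Endpoints are linearly interpolated between the surrounding concentrations. GI50 is the concentration that inhibits growth by half. At the TGI there is no net growth.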

Tests used:
Experiment in all cases: NCI-60 cell line screen, 48 h
[1] = system: 786-0 renal
[2] = system: HCT-116 colon
[3] = system: MCF7 breast
[4] = system: T-47D breast
[5] = system: EKVX NSCLC
[6] = system: A549 NSCLC
[7] = system: SK-OV-3 ovarian
[8] = system: RPMI-8226 leukemia
[9] = system: HCT-15 colon
[10] = system: OVCAR-4 ovarian
[11] = system: CAKI-1 renal
[12] = system: HOP-92 NSCLC
[13] = system: DU-145 prostate
[14] = system: OVCAR-8 ovarian
[15] = system: SF-539 CNS
[16] = system: SK-MEL-2 melanoma
[17] = system: HCC-2998 colon
[18] = system: MOLT-4 leukemia
[19] = system: M14 melanoma
[20] = system: UACC-257 melanoma
[21] = system: SN12C renal
[22] = system: COLO 205 colon
[23] = system: SNB-75 CNS
[24] = system: KM12 colon
[25] = system: NCI/ADR-RES ovarian
[26] = system: A498 renal
[27] = system: UO-31 renal
[28] = system: IGROV1 ovarian
[29] = system: CCRF-CEM leukemia
[30] = system: K-562 leukemia
[31] = system: SF-295 CNS
[32] = system: PC-3 prostate
[33] = system: NCI-H226 lung
[34] = system: NCI-H522 lung
[35] = system: TK-10 renal
[36] = system: OVCAR-5 ovarian
[37] = system: OVCAR-3 ovarian
[38] = system: NCI-H460 lung
[39] = system: SK-MEL-5 melanoma
[40] = system: U251 CNS
[41] = system: MDA-MB-435
[42] = system: ACHN renal
[43] = system: SW-620 colon
[44] = system: SNB-19 CNS
[45] = system: SF-268 CNS
[46] = system: HS 578T breast
[47] = system: HL-60(TB) leukemia
[48] = system: SR leukemia
[49] = system: BT-549 breast
[50] = system: HT29 colon
[51] = system: RXF 393 renal
[52] = system: NCI-H23 lung
[53] = system: MDA-MB-231 breast
[54] = system: SK-MEL-28 melanoma
[55] = system: HOP-62 NSCLC
[56] = system: MALME-3M melanoma
[57] = system: LOX IMVI melanoma
[58] = system: UACC-62 melanoma

SMILES: COc1cc2c3c(cc4c5c(ccc4c3c1OC)OCO5)N(CCN(C)C)C2=O
- GI50 [1]: 35 nM
- TGI [1]: 654 nM
- GI50 [2]: 42.9 nM
- TGI [2]: 422 nM
- GI50 [3]: 32.2 nM
- TGI [3]: 579 nM
- GI50 [4]: 64.9 nM
- TGI [4]: 3050 nM
- GI50 [5]: 104 nM
- TGI [5]: 669 nM
- GI50 [6]: 13.3 nM
- TGI [6]: 385 nM
- GI50 [7]: 74.6 nM
- TGI [7]: 600 nM
- GI50 [8]: 43.7 nM
- TGI [8]: 517 nM
- GI50 [9]: 34 nM
- TGI [9]: 605 nM
- GI50 [10]: 309 nM
- TGI [10]: 7840 nM
- GI50 [11]: 39.3 nM
- TGI [11]: 261 nM
- GI50 [12]: 60.9 nM
- TGI [12]: 561 nM
- GI50 [13]: 35.4 nM
- TGI [13]: 490 nM
- GI50 [14]: 59.6 nM
- TGI [14]: 5980 nM
- GI50 [15]: 110 nM
- TGI [15]: 411 nM
- GI50 [16]: 313 nM
- TGI [16]: 804 nM
- GI50 [17]: 85.8 nM
- TGI [17]: 295 nM
- GI50 [18]: 23.6 nM
- TGI [18]: 1410 nM
- GI50 [19]: 46.6 nM
- TGI [19]: 400 nM
- GI50 [20]: 166 nM
- TGI [20]: 596 nM
- GI50 [21]: 31.8 nM
- TGI [21]: 378 nM
- GI50 [22]: 116 nM
- TGI [22]: 935 nM
- GI50 [23]: 71.1 nM
- TGI [23]: 583 nM
- GI50 [24]: 196 nM
- TGI [24]: 11700 nM
- GI50 [25]: 68.5 nM
- TGI [25]: 675 nM
- GI50 [26]: 77.6 nM
- TGI [26]: 299 nM
- GI50 [27]: 34.3 nM
- TGI [27]: 201 nM
- GI50 [28]: 47.2 nM
- TGI [28]: 501 nM
- GI50 [29]: 28.1 nM
- TGI [29]: 9640 nM
- GI50 [30]: 50 nM
- GI50 [31]: 33.5 nM
- TGI [31]: 229 nM
- GI50 [32]: 157 nM
- TGI [32]: 4440 nM
- GI50 [33]: 69.6 nM
- TGI [33]: 344 nM
- GI50 [34]: 101 nM
- TGI [34]: 599 nM
- GI50 [35]: 170 nM
- TGI [35]: 702 nM
- GI50 [36]: 133 nM
- TGI [36]: 907 nM
- GI50 [37]: 199 nM
- TGI [37]: 1140 nM
- GI50 [38]: 17.6 nM
- TGI [38]: 147 nM
- GI50 [39]: 92.4 nM
- TGI [39]: 225 nM
- GI50 [40]: 38.9 nM
- TGI [40]: 1430 nM
- GI50 [41]: 170 nM
- TGI [41]: 615 nM
- GI50 [42]: 21.5 nM
- TGI [42]: 81.2 nM
- GI50 [43]: 36.3 nM
- TGI [43]: 1330 nM
- GI50 [44]: 38.9 nM
- TGI [44]: 2610 nM
- GI50 [45]: 104 nM
- TGI [45]: 1040 nM
- GI50 [46]: 190 nM
- TGI [46]: 1280 nM
- GI50 [47]: 22.6 nM
- TGI [47]: 118 nM
- GI50 [48]: 22.5 nM
- GI50 [49]: 234 nM
- TGI [49]: 1530 nM
- GI50 [50]: 87.1 nM
- TGI [50]: 1260 nM
- GI50 [51]: 89.4 nM
- TGI [51]: 264 nM
- GI50 [52]: 53.8 nM
- TGI [52]: 339 nM
- GI50 [53]: 249 nM
- TGI [53]: 1610 nM
- GI50 [54]: 182 nM
- TGI [54]: 676 nM
- GI50 [55]: 35.9 nM
- TGI [55]: 1620 nM
- GI50 [56]: 64.2 nM
- TGI [56]: 258 nM
- TGI [57]: 49.6 nM
- GI50 [58]: 56.7 nM
- TGI [58]: 229 nM
